# Results from patent US20260207618A1, “PYRIMIDINE CARBOXAMIDE COMPOUNDS” (Acrivon Therapeutics, Inc., priority 2022, published 2026).
# Legend:
# [1] = target: T1, recombinant human Wee1A kinase (Homo sapiens, UniProt P30291); assay: LanthaScreen Europium (Eu) Kinase Binding Assay, Wee1A kinase (TR-FRET tracer displacement); details: 30 nM tracer 178, 5 nM Wee1A kinase, 60 minutes at room temperature
# T1 construct: full length Wee1A kinase was expressed by baculovirus in insect cells; purchased Invitrogen PV3817; host or cells: insect cells (baculovirus)
# T1 sequence (P30291 whole entry): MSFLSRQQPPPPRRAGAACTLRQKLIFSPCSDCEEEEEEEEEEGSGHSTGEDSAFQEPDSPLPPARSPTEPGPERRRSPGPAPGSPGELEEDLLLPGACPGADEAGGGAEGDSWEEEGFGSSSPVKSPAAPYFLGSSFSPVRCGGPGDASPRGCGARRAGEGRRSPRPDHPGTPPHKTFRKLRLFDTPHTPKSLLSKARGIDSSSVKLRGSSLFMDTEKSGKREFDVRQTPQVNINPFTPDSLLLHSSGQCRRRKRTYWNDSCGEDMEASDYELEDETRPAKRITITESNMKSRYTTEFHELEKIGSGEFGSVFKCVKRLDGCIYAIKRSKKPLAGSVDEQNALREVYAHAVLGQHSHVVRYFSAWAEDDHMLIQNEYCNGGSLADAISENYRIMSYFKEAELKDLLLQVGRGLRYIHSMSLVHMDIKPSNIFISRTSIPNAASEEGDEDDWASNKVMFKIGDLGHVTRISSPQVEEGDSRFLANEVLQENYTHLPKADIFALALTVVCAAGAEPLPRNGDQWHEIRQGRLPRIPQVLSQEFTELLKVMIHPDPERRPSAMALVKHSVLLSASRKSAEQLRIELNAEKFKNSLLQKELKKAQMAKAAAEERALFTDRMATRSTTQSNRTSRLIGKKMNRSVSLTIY
# Description: We used a LanthaScreen Europium (Eu) Kinase Binding Assay to determine the binding of provided compounds to Wee1A kinase. The assay utilizes an Alexa Fluor 647-labeled ATP competitive kinase tracer that binds to the ATP binding site of a GST-tagged Wee1A kinase, while a europium (Eu) labeled antibody binds to the GST tag. The proximity of fluorescently labeled kinase tracer and europium (Eu) donor fluorophore antibody leads to fluorescence resonance energy transfer (FRET) to the fluorescence label (acceptor) upon excitation of the Eu (donor). Displacement of tracer from the ATP-binding site by a test compound disturbs the proximity between both labels thus lowering the FRET.
# This time resolved-FRET binding assay was performed in white 384-well low volume plates (Greiner, cat #784075), at room temperature in kinase buffer A (KBA; Invitrogen cat #PV3189), consisting of 50 mM HEPES-NaOH (pH 7.5), 0.01% Brij-35, 10 mM MgCl2, and 1 mM EGTA. 5 μl of compound (diluted in reaction buffer, to 1% DMSO) were added to various wells in the plate, followed by 5 μl each of recombinant human Wee1A kinase (full length Wee1A kinase was expressed by baculovirus in insect cells using a N-terminal GST tag (MW: 99.1 kDa) (Invitrogen cat #PV3817) and LanthaScreen Eu-anti-GST antibody (Invitrogen, cat #PV5594). After this, 5 μl of kinase tracer 178 (Invitrogen, cat #PV5593) was added to the plate and the plate was incubated for 60 minutes at room temperature. The final assay conditions in each well were: 30 nM tracer 178, 5 nM Wee1A kinase and 2 nM Eu-labeled antibody in total assay volume of 15 μl. An Envision 2104 (Perkin-Elmer) Plate Reader with the following time-resolve fluorescence setting was used for performing LanthaScreen kinase binding assay. • Excitation 320 nm (30 nm bandpass) • Kinase Tracer Emission 665 nm (10 nm bandpass) • LanthaScreen Eu-anti-Tag Antibody Emission 615 nm (10 nm bandpass) • Dichroic Mirror Instrument dependent • Delay Time 100 μs • Integration Time 200 μs
# To calculate the emission ratio, the acceptor/tracer emission ([…]) was divided by the antibody/donor emission ([…]) and the average of duplicate measurement was used for calculations. Data plotting, analysis of binding, and curve fitting was done using Excel add-in XLfit version 5.5.0.5 (IDBS, Guildford, United Kingdom).
# [2] = test system: Cdk1 phosphorylated on tyrosine 15; assay: High-content imaging of pCdk1 Y15 by immunofluorescence in ACHN cells; type: cell-based; details: Homo sapiens, high-content imaging (IF), 4 h, 7 to 5000 nM, read-out: CDK1 Tyr15 Phosphorylation EC50 (IC50)
# Description: ACHN renal cell carcinoma cell line (ATCC) was cultured in Minimum Essential Medium Eagle supplemented with 10% fetal calf serum (Sigma), 1% Penicillin-Streptomycin and 10 mM HEPES buffer (HyClone). Cell cultures were kept in a humidified incubator at 37° C. and 5% CO2. Cells were routinely tested for Mycoplasma contamination.
# High-content imaging of ACHN renal cell carcinoma cells was used for quantification of CDK1 phosphorylated on tyrosine 15 by immunofluorescence (“IF”). 20 000 cells per well were seeded in tissue culture treated 96 well plates and treated with compounds at concentrations ranging from 7 to 5000 nM for 4 h. Cells were fixated for 15 minutes in 4% paraformaldehyde solution, washed in PBS and permeabilized using 0.2% Triton X-100. Blocking was performed for 1 h at RT using Blocker FL Fluorescent Blocking Buffer (Thermo Scientific), thereafter cells were incubated with primary antibody (rabbit anti-pCDK1 Y^15, #4539, Cell Signaling Technology) at 4° C. ON. Alexa Fluor Plus 647 labelled goat anti-rabbit (A32733. Thermo Scientific) was used as secondary antibody. After washing in PBS, nuclei were stained with DAPI solution for 10 min at RT, protected from light. Cells were imaged using an ImageXpress Pico automated imaging system and CellReporter Xpress software (Molecular Devices). The percentage cells with nuclear positivity for pCdk1 Y^15 compared to DMSO control was determined for each well and drug dose response curves and EC50 values were calculated and visualized using GraphPad Prism.
SMILES,IC50 [1],EC50 [2]
"COc1nc(Nc2ccc(N3CCCN(C)CC3)cc2)ncc1C(=O)Nc1c(Cl)cccc1Br [Compound 206, N-(2-bromo-6-chlorophenyl)-4-methoxy-2-[p-(4-methyl-1,4-diazepan-1-yl)phenylamino]-5-pyrimidinecarboxamide]",≤ 0.01 µM,0.1 to 0.5 µM
CN1CCN(c2ccc(Nc3ncc(C(=O)Nc4c(Cl)cccc4Cl)c(OCC4CCCO4)n3)cc2)CC1 (stereo not drawn) [Compound 105],≤ 0.01 µM,> 1 µM
"COc1nc(Nc2ccc(C3CCN(C)CC3)c(C)c2)ncc1C(=O)Nc1cc(O)ccc1Cl [Compound 138, N-(2-chloro-5-hydroxyphenyl)-4-methoxy-2-((3-methyl-4-(1-methylpiperidin-4-yl)phenyl)amino)pyrimidine-5-carboxamide]",≤ 0.01 µM,> 1 µM
COc1nc(Nc2ccc(N3CCN(C)CC3)c(C)c2)ncc1C(=O)Nc1c(Cl)cccc1Cl [Compound 161],≤ 0.01 µM,0.1 to 0.5 µM
"COc1nc(Nc2ccc(OCCCN3CCOCC3)c(C)c2)ncc1C(=O)Nc1c(Cl)cccc1Cl [Compound 148, N-(2,6-dichlorophenyl)-4-methoxy-2-((3-methyl-4-(3-morpholinopropoxy)phenyl)amino)pyrimidine-5-carboxamide]",≤ 0.01 µM,> 1 µM
"COc1nc(Nc2ccc(C3CCN(C)CC3)c(C)c2)ncc1C(=O)Nc1c(F)cc(F)cc1Cl [Compound 127, N-(2-chloro-4,6-difluorophenyl)-4-methoxy-2-((3-methyl-4-(1-methylpiperidin-4-yl)phenyl)amino)pyrimidine-5-carboxamide]",≤ 0.01 µM,0.1 to 0.5 µM
"COc1nc(Nc2ccc([C@H]3CCCN(C)C3)c(C)c2)ncc1C(=O)Nc1c(Cl)cccc1Br [Compound 196, (R)—N-(2-bromo-6-chlorophenyl)-4-methoxy-2-((3-methyl-4-(1-methylpiperidin-3-yl)phenyl)amino)pyrimidine-5-carboxamide]",≤ 0.01 µM,0.1 to 0.5 µM
"COc1nc(Nc2cnn(C)c2)ncc1C(=O)Nc1c(C)ccc(O)c1C [Compound 224, N-(3-hydroxy-2,6-xylyl)-4-methoxy-2-(1-methyl-4-pyrazolylamino)-5-pyrimidinecarboxamide]",≤ 0.01 µM,> 1 µM
"CCOc1nc(Nc2cnn([C@H](C)CNC)c2)ncc1C(=O)Nc1c(Cl)cccc1Br [Compound 203, N-(2-bromo-6-chlorophenyl)-2-{1-[(R)-1-methyl-2-(methylamino)ethyl]-4-pyrazolylamino}-4-ethoxy-5-pyrimidinecarboxamide]",≤ 0.01 µM,> 1 µM
"CN1CCN(c2ccc(Nc3ncc(C(=O)Nc4c(Cl)cccc4Cl)c(OCCO)n3)cc2)CC1 [Compound 123, N-(2,6-dichlorophenyl)-4-(2-hydroxyethoxy)-2-((4-(4-methylpiperazin-1-yl)phenyl)amino)pyrimidine-5-carboxamide]",0.01 to 0.1 µM,> 1 µM
COc1nc(Nc2cnn(C[C@@H]3CCNC3)c2)ncc1C(=O)Nc1c(Cl)cccc1Cl [Compound 164],≤ 0.01 µM,> 1 µM
COc1nc(Nc2ccc3c(cnn3C3CCN(C)CC3)c2)ncc1C(=O)Nc1c(Cl)cccc1Cl [Compound 166],≤ 0.01 µM,0.1 to 0.5 µM
CCOc1nc(Nc2cnn([C@H](C)CN(C)C)c2)ncc1C(=O)Nc1c(Cl)cccc1Br [Compound 204],≤ 0.01 µM,> 1 µM
"CN1CCN(c2ccc(Nc3ncc(C(=O)Nc4c(Cl)cccc4Cl)c(OC4CC4)n3)cc2)CC1 [Compound 102, 4-cyclopropoxy-N-(2,6-dichlorophenyl)-2-((4-(4-methylpiperazin-1-yl)phenyl)amino)pyrimidine-5-carboxamide]",≤ 0.01 µM,0.1 to 0.5 µM
"COc1nc(Nc2ccc(C3CCN(C)CC3)c(C)c2)ncc1C(=O)Nc1c(F)cccc1Br [Compound 136, N-(2-bromo-6-fluorophenyl)-4-methoxy-2-((3-methyl-4-(1-methylpiperidin-4-yl)phenyl)amino)pyrimidine-5-carboxamide]",≤ 0.01 µM,0.1 to 0.5 µM
"COc1nc(Nc2ccc(C3CCN(C)CC3)c(C)c2)ncc1C(=O)Nc1c(F)ccc(F)c1Cl [Compound 128, N-(2-chloro-3,6-difluorophenyl)-4-methoxy-2-((3-methyl-4-(1-methylpiperidin-4-yl)phenyl)amino)pyrimidine-5-carboxamide]",≤ 0.01 µM,0.1 to 0.5 µM
"COc1nc(Nc2ccc(C3CCN(C)CC3)c(C)c2)ncc1C(=O)Nc1c(Cl)ccc(F)c1F [Compound 125, N-(6-chloro-2,3-difluorophenyl)-4-methoxy-2-((3-methyl-4-(1-methylpiperidin-4-yl)phenyl)amino)pyrimidine-5-carboxamide]",≤ 0.01 µM,> 1 µM
COc1nc(Nc2ccc([C@@H]3CCN(C)C3)c(C)c2)ncc1C(=O)Nc1c(Cl)cccc1Br [Compound 193],≤ 0.01 µM,≤ 0.1 µM
COc1nc(Nc2ccc(OC3CCNCC3)c(C)c2)ncc1C(=O)Nc1c(Cl)cccc1Br [Compound 219],≤ 0.01 µM,0.1 to 0.5 µM
"COc1nc(Nc2ccc(C3CCN(C)CC3)c(C)c2)ncc1C(=O)Nc1ccccc1Br [Compound 107, N-(2-bromophenyl)-4-methoxy-2-((3-methyl-4-(1-methylpiperidin-4-yl)phenyl)amino)pyrimidine-5-carboxamide]",≤ 0.01 µM,> 1 µM
"COc1nc(Nc2ccc(C3CCN(C)CC3)c(C)c2)ncc1C(=O)Nc1c(C)cccc1C(F)(F)F [Compound 120, 4-methoxy-2-((3-methyl-4-(1-methylpiperidin-4-yl)phenyl)amino)-N-(2-methyl-6-(trifluoromethyl)phenyl)pyrimidine-5-carboxamide]",≤ 0.01 µM,> 1 µM
"CCOc1nc(Nc2cnn([C@@H](C)CN(C)C)c2)ncc1C(=O)Nc1c(Cl)cccc1Br [Compound 202, N-(2-bromo-6-chlorophenyl)-2-{1-[(S)-2-(dimethylamino)-1-methylethyl]-4-pyrazolylamino}-4-ethoxy-5-pyrimidinecarboxamide]",≤ 0.01 µM,> 1 µM
"COc1nc(Nc2ccc(C3CCN(C)CC3)c(C)c2)ncc1C(=O)Nc1c(C)cccc1Cl [Compound 106, N-(2-chloro-6-methylphenyl)-4-methoxy-2-((3-methyl-4-(1-methylpiperidin-4-yl)phenyl)amino)pyrimidine-5-carboxamide]",≤ 0.01 µM,0.1 to 0.5 µM
"COc1nc(Nc2cnn([C@H]3CCCNCC3)c2)ncc1C(=O)Nc1c(Cl)cccc1Cl (single isomer, unassigned) [Compound 187]",≤ 0.01 µM,> 1 µM
"COc1nc(Nc2cnn([C@@H]3CCCNCC3)c2)ncc1C(=O)Nc1c(Cl)cccc1Cl (single isomer, unassigned) [Compound 186]",≤ 0.01 µM,> 1 µM
"COc1nc(Nc2ccc(OC3CCN(C)CC3)c(C)c2)ncc1C(=O)Nc1c(Cl)cccc1Cl [Compound 145, N-(2,6-dichlorophenyl)-4-methoxy-2-((3-methyl-4-((1-methylpiperidin-4-yl)oxy)phenyl)amino)pyrimidine-5-carboxamide]",≤ 0.01 µM,0.1 to 0.5 µM
COc1nc(Nc2cnn(C[C@H]3CCNC3)c2)ncc1C(=O)Nc1c(Cl)cccc1Cl [Compound 165],0.01 to 0.1 µM,> 1 µM
